Where “and” joins values, the source holds several entries; their conditions need not be identical. Equal values may be shown once. Read-outs that look alike come from different tables or passages of the source.
System: mice, spared nerve injury (SNI) model
Type: in vivo, mouse
Conditions: for von Frey paw withdrawal threshold, ipsilateral paw (Fig 7F): SNI mice, 10 umol/kg, individual animals
Protocol: solution (0.05 mg/kg) injected s.c. 30 min before surgery (10 μL/g). For surgery, mice were anaesthetised with ketamine (100 mg/kg, i.p.) and xylazine (10 mg/kg, i.p.) (volume 10 µL/g) with 100 μL of 1% xylocaine solution infiltrated at the site of the incision. The distal trifurcation of the sciatic nerve was identified, and the tibial and common peroneal branches were ligated with polypropylene nonabsorbable 6-0 sutures (Ethicon) and 1 mm was cut out, leaving the sural branch intact. The wound was closed with sutures, and the animals were allowed to recover and returned to their cages. Two subcutaneous injections of buprenorphine (0.05 mg/kg) were performed with an 8 to 12 hours delay decreasing pain due to the surgery […]
The remaining SNI pain experiments were performed in-house using the following procedure.
SNI surgery was performed on the left hindleg of C57BL/6J male and female mice (Janvier, France) under 2% isoflurane anaesthesia. Skin on the lateral surface was incised between hip and knee followed by lengthwise division of the biceps femoris muscle leading to exposure of the three branches of the sciatic nerve. Sural branch was left intact, while the peroneal and tibial branches were ligated with a single surgical knot and axotomized distally of the ligation.
Wounds were closed with surgical glue or medical clips and animals were monitored daily for signs of stress or discomfort, but in all cases recovered uneventfully. […]
The skin wound was closed with two medical clips (Michel Suture Clips, 7.5x1.75 mm, Angthos, 12040-01). Post-surgical analgesia included s.c. injection of 5 mg/kg carprofen (Carprosan vet, 50 mg/mL mixed 1:25 in sterile ddH2O, Dechra, Le Vet Beheer B.V., Netherlands, Batch: 050520) right after surgery and the […]
following day. […]
The test battery of the CIBP model was carried out 45 or 90 min after morphine and mPD5 administration respectively to accommodate the peak efficacy […]
Mechanically evoked pain (von Frey test).
Unless otherwise specified, von Frey occurred as described in the following. Animals were habituated to the experimental room for a minimum of 60 min before initiation of the experiment. Mechanical paw withdrawal threshold (PWT) was determined by von Frey measurements of both hind paws. Von Frey filaments ranging from 0.04 to 2 g (g = gram- […]
Filaments in ascending order were applied to the frontocentral plantar surface of the hind paws.
Mice were placed in PVC plastic boxes (11.5 cm x 14 cm) on a wire mesh and allowed minimum 20 min habituation prior of experiment initiation. Each von Frey hair was applied five times with adequate resting periods between each application and number of withdrawals recorded. The withdrawal threshold was determined as the von Frey filament eliciting at least three positive trials out of the five applications in two consecutive filaments. A positive trial was defined as sudden paw withdrawal, flinching and/or paw licking induced by the filament.
For the CIBP model, two habituation sessions were performed on separated days with mice placed in the von Frey equipment for 1-1.5 hours in the presence of the experimenter on day one and random von Frey pocking with the 0.6 g filament on day two. Von Frey monofilaments (North Coast Touch Test, North Coast Medical, Inc.) with target forces of 0.04g, 0.07g, 0.16g, […]
down method” (PWT=10Xf+kδ) starting with the 0.6 g filament. Positive response was defined as; withdrawal, shaking or grooming of paw following a 2-3 second stimulation. In case, of unclear response, stimulus was repeated after 10-15 seconds.
For the STZ model, the mechanical threshold response of the injected mice was measured with […]
injection of test compounds on day 14, mechanical threshold was measured at 1 hour, 2 hours, 4 hours and 6 hours and again on day 15. […]
Thermally evoked pain (Hargreaves test).
A baseline Hargreaves test was performed on day 0 before inflammatory pain was induced as described in section 2.13. In the Hargreaves test, the mouse was placed in a container on a glass […]

## CCCCCCCCCCCCCC(=O)N(CCOCCOCCC(=O)N[C@@H](Cc1c[nH]cn1)C(=O)N[C@@H](Cc1c[nH]c2ccccc12)C(=O)N[C@@H](CC(C)C)C(=O)N[C@@H](CCCCN)C(=O)N[C@H](C(=O)O)C(C)C)CCOCCOCCC(=O)N[C@@H](Cc1c[nH]cn1)C(=O)N[C@@H](Cc1c[nH]c2ccccc12)C(=O)N[C@@H](CC(C)C)C(=O)N[C@@H](CCCCN)C(=O)N[C@H](C(=O)O)C(C)C [mPD5, myristoyl-NPEG4-(HWLKV)2]
Time point 8
  von Frey paw withdrawal threshold, ipsilateral paw (Fig 7F): 0.16 (5×) and 0.4
Time point 13
  von Frey paw withdrawal threshold, ipsilateral paw (Fig 7F): 0.16 (5×) and 0.07
Time point BL (baseline)
  von Frey paw withdrawal threshold, ipsilateral paw (Fig 7F): 1 (2×) and 1.4 (4×)
Time point D12 (before dosing)
  von Frey paw withdrawal threshold, ipsilateral paw (Fig 7F): 0.16 (5×) and 0.07
SNI, single s.c. administration, 8 hours after injection
  effect on mechanical hypersensitivity (PWT): no effect on mechanical hypersensitivity

Source: paper PMC11530130, “Peripherally restricted PICK1 inhibitor mPD5 ameliorates pain behaviors in murine inflammatory and neuropathic pain models” (JCI Insight, 2024)
